Measurements published in patent publication US20090221829A1 (priority 2005, published 2009).

Test system: Candida albicans(KCTC 1940), Aspergillus niger (ATCC 9642) and Saccharomyces cerevisiae
Assay: Relative antifungal activity by agar dilution method (vs Miconazole);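 further: scores 5 to 7 mean a lower fungicidal concentration than Miconazole so higher is more potent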
Type: cell-based
Conditions: agar dilution method; fungicidal concentration relative to control drug Miconazole (=4)
Text: Novel compounds represented by the above chemical formula (I), and the relative activities in accordance with the agar dilution method in Sabouraud dextrose agar media, Czapek agar media and Yeast Extract-Peptone-Dextrose agar media for Candida albicans(KCTC 1940), Aspergillus niger (ATCC 9642) and Saccharomyces cerevisiae are described respectively in following Table 1.

| SMILES | Relative Activity |
| --- | --- |
| CCCCCCCCCCCC1=[N+](Cc2ccccc2F)CCc2cc(OC)ccc21.[Cl-] [Compound No. 88, 1-n-undecyl-2-(2-fluorophenyl)methyl-3,4-dihydro-6-methoxyisoquinolinium chloride] | 2 |
| CCCCCCCCCCCCCCCC1=[N+](Cc2ccccc2F)CCc2cc(OC)ccc21.[Cl-] [Compound No. 89, 1-n-pentadecyl-2-(2-fluorophenyl)methyl-3,4-dihydro-6-methoxyisoquinolinium chloride] | 1 |
| CCCCCC1=[N+](Cc2ccc(C(F)(F)F)cc2)CCc2cc(OC)c(OC)cc21.[Cl-] [Compound No. 27, 1-n-pentyl-2-(4-trifluoromethylphenyl)methyl-3,4-dihydro-6,7-dimethoxyisoquinolinium chloride] | 4 |
| CCCCCC1=[N+](Cc2ccccc2Cl)CCc2cc(OC)c(OC)cc21.[Cl-] [Compound No. 50, 1-n-pentyl-2-(2-chlorophenyl)methyl-3,4-dihydro-6,7-dimethoxyisoquinolinium chloride] | 6 |
| CCCCCCCCCCCC1=[N+](Cc2c(F)cccc2Cl)CCc2cc(OC)c(OC)cc21.[Cl-] [Compound No. 68, 1-n-undecyl-2-(2-chloro-6-fluorophenyl)methyl-3,4-dihydro-6,7-dimethoxyisoquinolinium chloride] | 2 |
| COc1ccc(C[N+]2=C(C)c3cc(OC)c(OC)cc3CC2)cc1.[Cl-] [Compound No. 33, 1-methyl-2-(4-methoxyphenyl)methyl-3,4-dihydro-6,7-dimethoxyisoquinolinium chloride] | 6 |
| CCCCCCCCCCCCCCCC1=[N+](Cc2ccc(F)c(F)c2)CCc2cc3c(cc21)OCO3.[Cl-] [Compound No. 113, 1-n-pentadecyl-2-(3,4-difluorophenyl)methyl-3,4-dihydro-6,7-methylenedioxyisoquinolinium chloride] | 1 |
| COc1cc2c(cc1OC)C(CC(C)C)=[N+](Cc1ccccc1F)CC2.[Cl-] [Compound No. 8, 1-(2-methyl)propyl-2-(2-fluorophenyl)methyl-3,4-dihydro-6,7-dimethoxyisoquinolinium chloride] | 5 |
| COc1cc2c(cc1OC)C(c1cccc(C(F)(F)F)c1)=[N+](Cc1ccccc1F)CC2.[Cl-] [Compound No. 23, 1-(3-trifluoromethylphenyl)-2-(2-fluorophenyl) methyl-3,4-dihydro-6,7-dimethoxyisoquinolinium chloride] | 6 |
| CCCCCCCCCCCCCCCC1=[N+](Cc2ccccc2Cl)CCc2cc(OC)c(OC)cc21.[Cl-] [Compound No. 54, 1-n-pentadecyl-2-(2-chlorophenyl)methyl-3,4-dihydro-6,7-dimethoxyisoquinolinium chloride] | 1 |
| CCCCCCC1=[N+](Cc2ccccc2F)CCc2cc(OC)ccc21.[Cl-] [Compound No. 86, 1-n-hexyl-2-(2-fluorophenyl)methyl-3,4-dihydro-6-methoxyisoquinolinium chloride] | 5 |
| CCCCCC1=[N+](Cc2ccc(F)c(F)c2)CCc2cc(OC)c(OC)cc21.[Cl-] [Compound No. 41, 1-n-pentyl-2-(3,4-difluorophenyl)methyl-3,4-dihydro-6,7-dimethoxyisoquinolinium chloride] | 6 |
| CCCCCCCC1=[N+](Cc2ccc(F)c(F)c2)CCc2cc(OC)c(OC)cc21.[Cl-] [Compound No. 43, 1-n-heptyl-2-(3,4-difluorophenyl)methyl-3,4-dihydro-6,7-dimethoxyisoquinolinium chloride] | 3 |
| COc1cc2c(cc1OC)C(CCc1ccc(C(C)(C)C)cc1)=[N+](Cc1c(F)c(F)c(C(F)(F)F)c(F)c1F)CC2.[Cl-] [Compound No. 131, 1-(2-(4-t-butylphenyl))ethyl-2-(2,3,5,6-tetrafluoro-4-trifluoromethylphenyl)methyl-3,4-dihydro-6,7-dimethoxy isoquinolinium chloride] | 4 |
| COc1cc2c(cc1OC)C(CCc1ccc(C(C)(C)C)cc1)=[N+](Cc1cccc(OC)c1OCc1cccc(OC)c1OC)CC2.[Cl-] [Compound No. 136, 1-(2-(4-t-butylphenyl))ethyl-2-(2-(2,3-dimethoxybenzyloxy)-3-methoxyphenyl)methyl-3,4-dihydro-6,7-dimethoxy isoquinolinium chloride] | 4 |
| CCCCCCCC1=[N+](Cc2ccc(O)c([N+](=O)[O-])c2)CCc2cc(OC)c(OC)cc21.[Cl-] [Compound No. 76, 1-n-heptyl-2-(4-hydroxy-3-nitrophenyl)methyl-3,4-dihydro-6,7-dimethoxyisoquinolinium chloride] | 4 |
| CCCCCC1=[N+](Cc2ccccc2F)CCc2cc(OC)c(OC)cc21.[Cl-] [Compound No. 9, 1-n-pentyl-2-(2-fluorophenyl)methyl-3,4-dihydro-6,7-dimethoxyisoquinolinium chloride] | 4 |

| SMILES | Relative Activity |
| --- | --- |
| COc1cc2c(cc1OC)C(C(C)C)=[N+](Cc1ccccc1[N+](=O)[O-])CC2.[Cl-] [Compound No. 72, 1-i-propyl-2-(2-nitrophenyl)methyl-3,4-dihydro-6,7-dimethoxyisoquinolinium chloride] | 6 |
| CCC1=[N+](Cc2ccccc2F)CCc2cc(OC)c(OC)cc21.[Cl-] [Compound No. 4, 1-ethyl-2-(2-fluorophenyl)methyl-3,4-dihydro-6,7-dimethoxy-isoquinolinium chloride] | 6 |
| COc1ccc2c(c1)CC[N+](Cc1ccccc1F)=C2CC(C)C.[Cl-] [Compound No. 84, 1-(2-methyl)propyl-2-(2-fluorophenyl)methyl-3,4-dihydro-6-methoxyisoquinolinium chloride] | 6 |
| COc1cc2c(cc1OC)C(c1ccccc1F)=[N+](Cc1ccc(C(F)(F)F)cc1)CC2.[Cl-] [Compound No. 31, 1-(2-fluorophenyl)-2-(4-trifluoromethylphenyl)methyl-3,4-dihydro-6,7-dimethoxyisoquinolinium chloride] | 6 |
| COc1cc2c(cc1OC)C(CCc1ccc(C(C)(C)C)cc1)=[N+](Cc1ccc(C(F)(F)F)cc1)CC2.[Cl-] [Compound No. 129, 1-(2-(4-t-butylphenyl))ethyl-2-(4-trifluoromethylphenyl)methyl-3,4-dihydro-6,7-dimethoxy isoquinolinium chloride] | 4 |
| CCCCCCCCCCCCCCCC1=[N+](Cc2ccc(F)c(F)c2)CCc2cc(OC)c(OC)cc21.[Cl-] [Compound No. 46, 1-n-pentadecyl-2-(3,4-difluorophenyl)methyl-3,4-dihydro-6,7-dimethoxyisoquinolinium chloride] | 1 |
| COc1cc2c(cc1OC)C(CCCCl)=[N+](Cc1ccccc1F)CC2.[Cl-] [Compound No. 7, 1-(3-chloropropyl)-2-(2-fluorophenyl)methyl-3,4-dihydro-6,7-dimethoxyisoquinolinium chloride] | 5 |
| CCCCCCCCCCCC1=[N+](c2ccc(C(F)(F)F)cc2)CCc2cc(CNC(=O)OCC)ccc21.[Br-] [Compound No. 117, Ethyl 3,4-dihydro-1-undecylisoquinolinium-2-(4-trifluoromethylphenyl)-6-ylmethylcabamate bromide] | 4 |
| COc1ccc2c(c1)CC[N+](Cc1ccccc1F)=C2C.[Cl-] [Compound No. 80, 1-methyl-2-(2-fluorophenyl)methyl-3,4-dihydro-6-methoxyisoquinolinium chloride] | 6 |
| COc1cc2c(cc1OC)C(CCc1ccc(C(C)(C)C)cc1)=[N+](Cc1c(F)c(F)c(F)c(F)c1F)CC2.[Cl-] [Compound No. 130, 1-(2-(4-t-butylphenyl))ethyl-2-(2,3,4,5,6-pentafluorophenyl)methyl-3,4-dihydro-6,7-dimethoxy isoquinolinium chloride] | 4 |
| COc1cc2c(cc1OC)C(C)=[N+](Cc1c(F)cccc1F)CC2.[Cl-] [Compound No. 56, 1-methyl-2-(2,6-difluorophenyl)methyl-3,4-dihydro-6,7-dimethoxyisoquinolinium chloride] | 6 |
| CCCCCCCCCCCC1=[N+](c2ccc(C(C)(C)C)cc2)CCc2cc(CNC(=O)OCC)c(OC)cc21.[Br-] [Compound No. 116, ethyl 3,4-dihydro-7-methoxy-6-(4-t-butylphenyl)-1-undecylisoquinolinium-6-ylmethylcabamate bromide] | 2 |
| CCCC1=[N+](Cc2ccccc2F)CCc2cc(OC)ccc21.[Cl-] [Compound No. 82, 1-n-propyl-2-(2-fluorophenyl)methyl-3,4-dihydro-6-methoxyisoquinolinium chloride] | 6 |
| COc1cc2c(cc1OC)C(c1cccc(Cl)c1)=[N+](Cc1ccccc1F)CC2.[Cl-] [Compound No. 19, 1-(3-chlorophenyl)-2-(2-fluorophenyl)methyl-3,4-dihydro-6,7-dimethoxyisoquinolinium chloride] | 6 |
| COc1ccc(C[N+]2=C(CCc3ccc(C(C)(C)C)cc3)c3cc(OC)c(OC)cc3CC2)cc1OC [Compound No. 125, 1-(2-(4-t-butylphenyl))ethyl-2-(3,4-dimethoxyphenyl)methyl-3,4-dihydro-6,7-dimethoxyisoquinolinium chloride] | 2 |
| CCCC1=[N+](Cc2ccccc2F)CCc2cc(OC)c(OC)cc21.[Cl-] [Compound No. 5, 1-propyl-2-(2-fluorophenyl)methyl-3,4-dihydro-6,7-dimethoxyisoquinolinium chloride] | 5 |
| CCCCCCCCCCCC1=[N+](Cc2c(F)cccc2F)CCc2cc(OC)c(OC)cc21.[Cl-] [Compound No. 59, 1-n-undecyl-2-(2,6-difluorophenyl)methyl-3,4-dihydro-6,7-dimethoxyisoquinolinium chloride] | 1 |
